Measured values: patent US20220380342A1, “BIPHENYL DERIVATIVES FOR BLOCKING PD-1/PD-L1 INTERACTION, PREPARATION METHOD THEREFOR AND USE THEREOF” (Abbisko Therapeutics Co., Ltd., priority 2019, published 2022)
pEC50, pIC50: −log10 of the molar value.

Legend:
[1] = molecular target: T1, interaction between PD-1 and PD-L1 expressed on cell surfaces (Jurkat/NF-κB-luc/PD1 cells cocultured with Raji-PD-L1 cells) (Homo sapiens, UniProt Q9NZQ7); experiment: Jurkat reporter gene cellular assay; format: cell-based; conditions: OKT3 1 μg/mL stimulation, 6 hrs, activation fold vs DMSO
T1 construct: expressed in transfected cells; host or cells: Raji cells (PD-L1); Jurkat cells (PD-1, NF-κB-luc reporter)
Experimental: The effect of compounds of the examples of the present invention on the interaction between PD-1 and PD-L1 expressed on cell surfaces, and the related influence on T cell functions, were determined by a Jurkat reporter gene cellular assay.
Briefly, the reporter gene plasmid of NF-κB-luc and the plasmid of human PD-1 were transfected into Jurkat cells to establish a stably transfected cell line capable of stably expressing both PD-1 and NF-κB-Luc reporter genes; the expression level of PD-1 on the cell surface was confirmed by flow cytometry; and the expression of the reporter gene was confirmed via the response of the reporter gene stimulated by OKT-3 and Raji cells.
In addition, the plasmid of human PD-L1 was transfected into Raji cells to obtain a cell line capable of stably expressing PD-L1. Jurkat/NF-κB-luc/PD1 cells and Raji-PD-L1 cells were then cocultured and stimulated with OKT-3. On this basis, the compounds were added, and the enhancement of the signal pathway of T cell activation by the inhibitory effect of the compounds on the interaction between PD-1 and PD-L1 was evaluated by readings of reporter gene responses. The specific experimental process was as follows:
1) 30 μL of compound or antibody solution was added to each well of a white 96-well plate (Corning, 3610) at different diluted concentrations, and 10 μL of OKT3 (Biolegend, 317326) was then added (the final concentration of OKT3: 1 μg/mL);
2) 20 μL of Raji-PD-L1 cell suspension was added to each well with 5*10^4 cells for each well, and was incubated in an incubator for 20 min;
3) 20 μL of Jurkat/NF-Kb-luc/PD-1 cell suspension was added to each well with 5*10^4 cells for each well, and was well mixed, and 6 hrs later, Bright-glo (Promega, E2620) was applied and plates were read on Envision;
4) The reading of each well treated with the compound was compared with the reading of each well treated with DMSO to obtain the activation fold of the compound; and
5) EC50 values of compounds of the examples of the present invention were determined by non-linear regression analysis of activation folds at different compound concentrations.

[2] = molecular target: T2, interaction between PD-1 and PD-L1 (Homo sapiens, UniProt Q9NZQ7); experiment: PD1-PDL1 HTRF binding activity test; conditions: Cisbio PD-1/PD-L1 binding assay kit; percent inhibition vs DMSO
T2 construct: purchased Cisbio 64ICP01PEG or 64ICP01PEH
Experimental: The effect of compounds of the examples of the present invention on the interaction between PD-1 and PD-L1 was determined by the PD-1/PD-L1 binding assay kit from Cisbio (#64ICP01PEG or 64ICP01PEH). The detailed experimental process was as follows:
1) Pre-diluted compound solution, 4 μL of Tag1-PD-L1 and 4 μL of Tag2-PD1 were added to each well of a 384-well plate;
2) After the mixture was incubated at room temperature for 15 min, 5 μL of anti-Tag1-Eu3+ antibody and 5 μL of anti-Tag2-XL665 antibody were then added;
3) After incubated for 2 hrs at room temperature or overnight at 4° C., plates were read on Envision of Perkin Elmer; and readings at 665 nm and 620 nm were recorded, and the ratio of the two readings was taken as a reading for each well;
4) The reading of each well after compound treatment was compared with the reading of DMSO treated wells to obtain the percent inhibition of the compound; and
5) IC50 values of compounds of the examples of the present invention were determined by non-linear regression analysis of percent inhibition at different compound concentrations.

T1 sequence (Q9NZQ7 19-290): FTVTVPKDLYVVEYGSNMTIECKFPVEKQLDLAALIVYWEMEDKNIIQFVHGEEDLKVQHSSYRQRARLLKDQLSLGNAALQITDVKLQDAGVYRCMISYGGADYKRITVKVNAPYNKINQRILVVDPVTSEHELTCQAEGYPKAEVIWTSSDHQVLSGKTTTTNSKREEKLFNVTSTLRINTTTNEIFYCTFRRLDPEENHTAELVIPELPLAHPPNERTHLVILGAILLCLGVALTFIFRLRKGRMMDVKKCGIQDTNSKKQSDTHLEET
T2 sequence (Q9NZQ7 19-238 limits assumed): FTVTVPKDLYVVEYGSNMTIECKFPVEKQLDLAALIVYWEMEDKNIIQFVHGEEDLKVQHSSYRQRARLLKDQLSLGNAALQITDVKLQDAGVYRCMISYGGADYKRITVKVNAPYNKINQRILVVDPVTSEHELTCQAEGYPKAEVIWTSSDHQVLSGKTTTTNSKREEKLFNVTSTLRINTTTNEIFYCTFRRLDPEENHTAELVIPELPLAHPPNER

Compound | pEC50 [1] | pIC50 [2]
Cc1c(NC(=O)c2cc(C3CC3)c(CN[C@@H](C)CO)cn2)cccc1-c1cccc(NC(=O)c2cc(C3CC3)c(CN[C@H](CO)C(=O)O)cn2)c1C [Example 39, ((4-cyclopropyl-6-((3′-(4-cyclopropyl-5-((((S)-1-hydroxypropan-2-yl)amino)methyl)picolinamido)-2,2′-dimethyl-[1,1′-biphenyl]-3-yl)carbamoyl)pyridin-3-yl)methyl)-D-serine] | 7.44 | 8.72
CCOC(=O)[C@@H](CO)NCc1cnc(C(=O)Nc2cccc(-c3cccc(NC(=O)c4cc(C5CC5)c(CN[C@@H](C)CO)cn4)c3C)c2C)cc1C1CC1 [Example 39-1, Ethyl ((4-cyclopropyl-6-((3′-(4-cyclopropyl-5-((((S)-1-hydroxypropan-2-yl)amino)methyl)picolinamido)-2,2′-dimethyl-[1,1′-biphenyl]-3-yl)carbamoyl)pyridin-3-yl)methyl)-D-serinate] | 6.58 | 8.49
Cc1c(NC(=O)c2cc(C3CC3)c(CN[C@H]3CCC[C@@H]3O)cn2)cccc1-c1cccc(NC(=O)c2cc(C3CC3)c(CN[C@H](CO)C(=O)O)cn2)c1C [Example 40, ((4-cyclopropyl-6-((3′-(4-cyclopropyl-5-((((1S,2S)-2-hydroxycyclopentyl)amino)methyl)picolinamido)-2,2′-dimethyl-[1,1′-biphenyl]-3-yl)carbamoyl)pyridin-3-yl)methyl)-D-serine] | 7.41 | 8.77
Cc1c(NC(=O)c2cc(C3CC3)c(CNC3CCOCC3)cn2)cccc1-c1cccc(NC(=O)c2cc(C3CC3)c(CN[C@H](CO)C(=O)O)cn2)c1C [Example 51, ((4-cyclopropyl-6-((3′-(4-cyclopropyl-5-(((tetrahydro-2H-pyran-4-yl)amino)methyl)picolinamido)-2,2′-dimethyl-[1,1′-biphenyl]-3-yl)carbamoyl)pyridin-3-yl)methyl)-D-serine] | 7.06 | 8.69
Cc1c(NC(=O)c2cc(C3CC3)c(CN[C@H](CO)C(=O)O)cn2)cccc1-c1cccc(NC(=O)c2cc(C3CC3)c(CN3CC[C@@H](O)C3)cn2)c1C [Example 53, ((4-cyclopropyl-6-((3′-(4-cyclopropyl-5-(((R)-3-hydroxypyrrolidin-1-yl)methyl)picolinamido)-2,2′-dimethyl-[1, 1′-biphenyl]-3-yl)carbamoyl)pyridin-3-yl)methyl)-D-serine] | 7.06 | 8.44

The next lines start with the values.

pEC50 [1] | pIC50 [2] | Compound
6.59 | 8.24 | CCOC(=O)[C@@H](CO)NCc1cnc(C(=O)Nc2cccc(-c3cccc(NC(=O)c4cc(C5CC5)c(CN5CC[C@@H](O)C5)cn4)c3C)c2C)cc1C1CC1 [Example 53-1, Ethyl ((4-cyclopropyl-6-((3′-(4-cyclopropyl-5-(((R)-3-hydroxypyrrolidin-1-yl)methyl)picolinamido)-2,2′-dimethyl-[1,1′-biphenyl]-3-yl)carbamoyl)pyridin-3-yl)methyl)-D-serinate]
7.21 | 9.04 | Cc1c(NC(=O)c2cc(C3CC3)c(CN[C@H](CO)C(=O)O)cn2)cccc1-c1cccc(NC(=O)c2cc(C3CC3)c(CN3CCC[C@H]3CO)cn2)c1C [Example 54]
7.00 | 8.50 | Cc1c(NC(=O)c2cc(C3CC3)c(CN[C@H](CO)C(=O)O)cn2)cccc1-c1cccc(NC(=O)c2cc(C3CC3)c(CN3CCC[C@@H]3CO)cn2)c1C [Example 55]
7.71 | 9.21 | Cc1c(NC(=O)c2cc(C3CC3)c(CN[C@@](C)(CO)C(=O)O)cn2)cccc1-c1cccc(NC(=O)c2cc(C3CC3)c(CN[C@@](C)(CO)C(=O)O)cn2)c1C [Example 67, (2S,2′S)-2,2′-((((((2,2′-dimethyl-[1,1′-biphenyl]-3,3′-diyl)bis(azanediyl))bis(carbonyl))bis(4-cyclopropylpyridine-6,3-diyl))bis(methylene))bis(azanediyl))bis(3-hydroxy-2-methylpropanoic acid)]
